Measurements from paper PMC9414302, “UPLC-ESI-QTRAP-MS/MS Analysis to Quantify Bioactive Compounds in Fennel (Foeniculum vulgare Mill.) Waste with Potential Anti-Inflammatory Activity” (Metabolites, 2022).
Where two headings read alike, the source gives them in different places.

Experiments:
COX-1 = biological target: T1, COX-1 (Ovis aries, UniProt P05979); assay: COX inhibitor screening fluorometric assay (COX-1); type: biochemical
T1 construct: purchased Cayman Chemicals 700100
T1 sequence (P05979 25-600): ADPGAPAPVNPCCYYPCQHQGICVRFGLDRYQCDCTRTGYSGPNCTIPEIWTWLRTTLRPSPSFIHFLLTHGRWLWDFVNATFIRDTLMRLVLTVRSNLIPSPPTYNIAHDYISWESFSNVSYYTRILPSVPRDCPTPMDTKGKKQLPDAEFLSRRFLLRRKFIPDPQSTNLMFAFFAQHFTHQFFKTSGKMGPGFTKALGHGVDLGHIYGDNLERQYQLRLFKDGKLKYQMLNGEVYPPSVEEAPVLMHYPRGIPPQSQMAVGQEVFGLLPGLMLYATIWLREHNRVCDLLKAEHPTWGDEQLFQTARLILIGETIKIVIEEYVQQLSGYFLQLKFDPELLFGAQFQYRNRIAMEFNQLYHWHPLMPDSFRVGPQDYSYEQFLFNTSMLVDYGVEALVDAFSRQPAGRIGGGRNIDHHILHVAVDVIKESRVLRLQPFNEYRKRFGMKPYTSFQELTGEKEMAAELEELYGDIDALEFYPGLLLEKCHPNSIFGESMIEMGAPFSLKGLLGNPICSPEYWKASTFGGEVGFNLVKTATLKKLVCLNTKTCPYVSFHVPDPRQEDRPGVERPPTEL
Method: (§1) Anti-inflammatory activity was evaluated determining the capacity of some major metabolites of F. vulgare to inhibit the cyclooxygenase activity (COX). […] The assay uses the peroxidase component of COXs. The reaction between PGG2 and ADHP creates resorufin, a highly fluorescent compound. […] The inhibition of COXs is directly proportional to the reduction of resorufin fluorescence.
(§2) The analyses were made in triplicate and the results are expressed as the mean of the IC50 (µM) ± the standard deviation.

COX-2 = biological target: T2, COX-2 (Homo sapiens, UniProt P35354); assay: COX inhibitor screening fluorometric assay (COX-2); type: biochemical
T2 construct: purchased Cayman Chemicals 700100
T2 sequence (P35354 18-604): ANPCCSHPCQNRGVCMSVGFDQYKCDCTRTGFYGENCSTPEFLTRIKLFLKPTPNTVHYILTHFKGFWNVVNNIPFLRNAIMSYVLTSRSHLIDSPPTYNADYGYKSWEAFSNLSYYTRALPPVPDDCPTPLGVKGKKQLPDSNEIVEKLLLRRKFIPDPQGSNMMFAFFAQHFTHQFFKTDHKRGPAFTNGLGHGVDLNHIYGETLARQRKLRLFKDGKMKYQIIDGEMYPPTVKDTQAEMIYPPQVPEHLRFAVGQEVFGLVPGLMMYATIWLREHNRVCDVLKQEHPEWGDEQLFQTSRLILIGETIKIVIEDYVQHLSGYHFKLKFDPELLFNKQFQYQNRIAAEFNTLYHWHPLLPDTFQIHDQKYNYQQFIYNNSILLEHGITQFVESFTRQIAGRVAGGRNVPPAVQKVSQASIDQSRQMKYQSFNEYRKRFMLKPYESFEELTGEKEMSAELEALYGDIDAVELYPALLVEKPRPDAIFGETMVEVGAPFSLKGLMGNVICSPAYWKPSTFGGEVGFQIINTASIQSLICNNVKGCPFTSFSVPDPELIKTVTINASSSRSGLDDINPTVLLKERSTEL
Method: as §1, §2

[1] = fluorometric assay (resorufin, ex 535 nm / em 590 nm), mean of three determinations ± SD, metabolites tested at 25, 50, 100 and 150 µM, SC-560 at 2, 4, 8 and 10 nM

Row | IC50 (COX-1; [1]) [µM] | Structure (SMILES) | IC50 (COX-1) [µM] | IC50 (COX-2) [µM]
1 | 571 ± 40 | O=C(O)[C@H]1O[C@@H](Oc2c(-c3ccc(O)c(O)c3)oc3cc(O)cc(O)c3c2=O)[C@H](O)[C@@H](O)[C@@H]1O [Quercetin glucuronide, quercetin glucuronide] | – | –
2 | – | O=C(/C=C/c1ccc(O)c(O)c1)OC1C(O)CC(OC(=O)/C=C/c2ccc(O)c(O)c2)(C(=O)O)CC1O (stereo not drawn) [Dicaffeoylquinic acid, dicaffeoylquinic acid] | 85.6 ± 10.9 | 14.8 ± 2.39
3 | 228 ± 16.8 | O=C(O)C1OC(Oc2c(-c3ccc(O)cc3)oc3cc(O)cc(O)c3c2=O)C(O)C(O)C1O (stereo not drawn) [Kaempferol glucuronide, kaempferol glucuronide] | – | –
4 | – | O=c1c(O[C@@H]2O[C@H](CO)[C@@H](O)[C@H](O)[C@H]2O)c(-c2ccc(O)c(O)c2)oc2cc(O)cc(O)c12 [Quercetin glucoside, quercetin glucoside] | 103 ± 8.66 | –
5 | 94.7 ± 1.22 | COc1cc(-c2oc3cc(O)cc(O)c3c(=O)c2OC2OC(C(=O)O)C(O)C(O)C2O)ccc1O (stereo not drawn) [Isorhamnetin glucuronide, isorhamnetin glucuronide] | – | –
